{"source": "paper PMC10226132", "about": "“First-in-Class Selective Inhibitors of the Lysine Acetyltransferase KAT8” (Journal of Medicinal Chemistry, 2023)", "key": {"KAT3B": {"target": "T1, KAT3B (Homo sapiens, UniProt Q09472)", "T1 construct": "KAT3B (aa 1284–1672, 1 nM); purchased Reaction Biology Corporation", "T1 sequence (Q09472 1284-1672)": "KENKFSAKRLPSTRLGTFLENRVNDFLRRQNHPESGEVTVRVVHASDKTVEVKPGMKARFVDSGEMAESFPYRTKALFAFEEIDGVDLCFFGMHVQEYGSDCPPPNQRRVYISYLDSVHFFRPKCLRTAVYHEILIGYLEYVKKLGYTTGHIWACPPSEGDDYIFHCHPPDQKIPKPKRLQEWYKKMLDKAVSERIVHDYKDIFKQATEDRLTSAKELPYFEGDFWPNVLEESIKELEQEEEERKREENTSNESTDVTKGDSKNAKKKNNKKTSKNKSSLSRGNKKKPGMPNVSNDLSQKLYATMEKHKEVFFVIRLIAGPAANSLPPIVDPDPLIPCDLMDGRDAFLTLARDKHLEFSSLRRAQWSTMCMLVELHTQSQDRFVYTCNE", "experiment": "HotSpot KAT assay, KAT3B", "assay_type": "biochemical", "conditions": "enzyme 1 nM, NI = no inhibition at 200 μM, mean ± SD of three independent experiments; for IC50: read-out: IC50 KAT3B (1 nM)"}, "[1]": {"experiment": "HPLC-based analysis of thiol reactivity", "assay_type": "physicochemical", "conditions": "0.5 mM compound, 2 mM DTT, BME or GSH, pH 7.5, 1, 8 or 24 h at room temperature", "method": "Compounds 19 and 34 were dissolved in a solution containing 100 mM NaCl and 40 mM Tris·HCl (pH 7.5) with the addition of DTT, BME, or GSH (each at 2 mM) to a final concentration of 0.5 mM and incubated for 1, 8, and 24 h at rt. HPLC analysis was then performed at three wavelengths (254, 286, and 395 nm) under the same conditions described in the “Chemistry” paragraph of the Experimental Section."}, "H1299 cells": {"test_system": "H1299 cells", "experiment": "MTT cell proliferation assay, H1299", "assay_type": "cell-based, human", "conditions": "for antiproliferative activity in H1299: 10, 25, 50, 100 μM, 72 h; for IC50: Homo sapiens, NCI-H1299, 72 h treatment, MTT", "source_text": "(§1) Human commercially available AML U937, breast cancer MCF7, lung adenocarcinoma NCI-H460, H1299 and A-549, glioblastoma U251, B lymphocyte AHH1 cell lines were maintained in compete 10% foetal bovine serum (FBS,) RPMI 1640 (Euroclone, Milan, IT) medium. Human commercially available colon cancer HCT116 and HT29 lines and cervix adenocarcinoma HeLa cells were maintained in compete 10% FBS Dulbecco’s Modified Eagle Medium (DMEM) high glucose medium (Euroclone). L-Glutamine, FBS, and penicillin streptomycin mixture added to medium were obtained from Euroclone. All cell lines were cultured at 37 °C in a humidified atmosphere of 5% CO2:95% air and were tested for mycoplasma contamination routinely by RT-PCR.\n(§2) For analysis of cell proliferation, cells were plated in sextuplicate on 96-well plates in complete media. After 24 h, cells were exposed to different drugs for 72 h. The inhibitory effect of different drugs was assessed by MTT (Sigma, St. Louis, MO, USA) colorimetric assays as previously reported.[67] Aqueous DMSO (0.5% v/v) was used as a control (untreated). The results are reported as “viability of drug-treated cells/viability of untreated cells” × 100 and represent the average ±SD of three independent experiments. IC50 values were using fitted by nonlinear regression using GraphPad Prism 8.0."}, "A549 cells": {"test_system": "A549 cells", "experiment": "MTT cell proliferation assay, A549", "assay_type": "cell-based, human", "conditions": "for antiproliferative activity in A549: 10, 25, 50, 100 μM; for IC50: 72 h treatment, MTT", "source_text": "as §1, §2"}, "H460 cells": {"test_system": "H460 cells", "experiment": "MTT cell proliferation assay, H460", "assay_type": "cell-based, human", "conditions": "10, 25, 50, 100 μM, 72 h", "source_text": "as §1, §2"}, "MCF7 cells": {"test_system": "MCF7 cells", "experiment": "MTT cell proliferation assay, MCF7", "assay_type": "cell-based, human", "conditions": "10, 25, 50, 100 μM, 72 h", "source_text": "as §1, §2"}, "U251 cells": {"test_system": "U251 cells", "experiment": "MTT cell proliferation assay, U251", "assay_type": "cell-based, human", "conditions": "10, 25, 50, 100 μM, 72 h", "source_text": "as §1, §2"}, "[2]": {"test_system": "human intestinal epithelial cells (InEpC)", "experiment": "Proliferation of human intestinal epithelial cells (InEpC)", "assay_type": "cell-based", "conditions": "25, 50, 100, 200 μM, 72 h", "method": "as §2"}, "HCT116 cells [3]": {"test_system": "HCT116 cells", "experiment": "Cell cycle analysis by propidium iodide staining, HCT116", "assay_type": "cell-based, human", "conditions": "72 h", "method": "(§3) For the analysis of the progression of cells through cell cycle phases and sub-G1 peak identification, 24 h after plating, cells were treated with the different compounds. After 72 h, both floating and adherent cells were collected and fixed with cold 70% ethanol. At least 24 h after fixation, cells were incubated with 0.025 mg/mL Propidium Iodide for 15 min at room temperature and analyzed. For Annexin V analysis, 24 h after plating, cells were treated with 50 and 100 μM of the compounds. In the case of chloroquine experiments, 10 μM chloroquine (Sigma-Aldrich, A9165) was added 30 min before compounds. 72 h after treatment, both floating and adherent cells were collected and stained with an Annexin V-FITC apoptosis detection kit (ENZO #ALX-850-020-KI). Samples were incubated 15 min in the dark at rt, and 10,000 events were then analyzed."}, "HeLa cells [4]": {"test_system": "HeLa cells", "experiment": "Cell cycle analysis by propidium iodide staining, HeLa", "assay_type": "cell-based, human", "conditions": "72 h", "method": "as §3"}, "HT29 cells": {"test_system": "HT29 cells", "experiment": "Annexin V/PI analysis, HT29", "assay_type": "cell-based, human", "conditions": "50 and 100 μM, 72 h, compared to control", "method": "as §3"}, "HCT116 cells [5]": {"test_system": "HCT116 cells", "experiment": "Annexin V/PI analysis, HCT116", "assay_type": "cell-based, human", "conditions": "72 h; for apoptotic effect in combination with chloroquine (Annexin V), HCT116: 100 μM compound + CQ 10 μM; for apoptotic cell population (Annexin V), HCT116: 50 and 100 μM, compared to control", "method": "as §3"}, "HeLa cells [6]": {"test_system": "HeLa cells", "experiment": "Annexin V/PI analysis, HeLa", "assay_type": "cell-based, human", "conditions": "50 and 100 μM, 72 h, compared to control", "method": "as §3"}}}
{"smiles": "CC1=NN(c2ccc(C(=O)O)cc2)C(=O)/C1=C\\c1ccc[nH]1", "note": "[Compound 19, (Z)-4-(4-((1H-Pyrrol-2-yl)methylene)-3-methyl-5-oxo-4,5-dihydro-1H-pyrazol-1-yl)benzoic Acid]", "values": [{"measurement": "IC50 KAT3B (1 nM)", "setting": "KAT3B", "result": "no inhibition at 200 μM"}, {"measurement": "IC50", "setting": "KAT3B", "result": "> 200", "unit": "µM"}, {"measurement": "reaction with thiol-containing nucleophiles (HPLC)", "setting": "[1]", "result": "no evidence of reaction"}, {"measurement": "antiproliferative activity in H1299", "setting": "H1299 cells", "result": "dose-dependent antiproliferative effects"}, {"measurement": "IC50", "setting": "H1299 cells", "result": "52.1 ± 10.6", "unit": "µM"}, {"measurement": "antiproliferative activity in A549", "setting": "A549 cells; 72 h", "result": "dose-dependent antiproliferative effects"}, {"measurement": "IC50", "setting": "A549 cells; Homo sapiens, A549", "result": "41 ± 9.8", "unit": "µM"}, {"measurement": "antiproliferative activity in H460", "setting": "H460 cells", "result": "inhibited H460 proliferation"}, {"measurement": "antiproliferative activity in MCF7", "setting": "MCF7 cells", "result": "neither inhibitor had any effect"}, {"measurement": "antiproliferative activity in U251", "setting": "U251 cells", "result": "neither inhibitor had any effect"}, {"measurement": "effect on proliferation of InEpC", "setting": "[2]", "result": "did not significantly affect the proliferation"}, {"measurement": "change in the different stages of cell cycle, HCT116", "setting": "HCT116 cells [3]", "result": "no significative change"}, {"measurement": "change in the different stages of cell cycle, HeLa", "setting": "HeLa cells [4]", "result": "no significative change"}, {"measurement": "apoptotic cell population (Annexin V), HT29", "setting": "HT29 cells", "result": "only a slight increase in apoptotic cell population"}, {"measurement": "apoptotic effect in combination with chloroquine (Annexin V), HCT116", "setting": "HCT116 cells [5]", "result": "increased the apoptotic effect"}, {"measurement": "apoptotic cell population (Annexin V), HCT116", "setting": "HCT116 cells [5]", "result": "only a slight increase in apoptotic cell population"}, {"measurement": "apoptotic cell population (Annexin V), HeLa", "setting": "HeLa cells [6]", "result": "only a slight increase in apoptotic cell population"}]}
{"smiles": "O=C(O)c1ccc(N2N=C(c3ccccc3)/C(=C/c3ccc[nH]3)C2=O)cc1", "note": "[Compound 34, (Z)-4-(4-((1H-Pyrrol-2-yl)methylene)-5-oxo-3-phenyl-4,5-dihydro-1H-pyrazol-1-yl)benzoic Acid]", "values": [{"measurement": "IC50", "setting": "KAT3B", "result": "> 200", "unit": "µM"}, {"measurement": "reaction with thiol-containing nucleophiles (HPLC)", "setting": "[1]", "result": "no evidence of reaction"}, {"measurement": "antiproliferative activity in H1299", "setting": "H1299 cells", "result": "dose-dependent antiproliferative effects"}, {"measurement": "IC50", "setting": "H1299 cells", "result": "41.6 ± 6.8", "unit": "µM"}, {"measurement": "antiproliferative activity in A549", "setting": "A549 cells; 72 h", "result": "dose-dependent antiproliferative effects"}, {"measurement": "inhibition at 50 µM", "setting": "A549 cells; Homo sapiens, A549, 50 μM, 72 h", "result": "~65", "unit": "%"}, {"measurement": "inhibition at 100 µM", "setting": "A549 cells; Homo sapiens, A549, 100 μM, 72 h", "result": "~80", "unit": "%"}, {"measurement": "IC50", "setting": "A549 cells; Homo sapiens, A549", "result": "33 ± 5.7", "unit": "µM"}, {"measurement": "antiproliferative activity in H460", "setting": "H460 cells", "result": "essentially inactive"}, {"measurement": "antiproliferative activity in MCF7", "setting": "MCF7 cells", "result": "neither inhibitor had any effect"}, {"measurement": "antiproliferative activity in U251", "setting": "U251 cells", "result": "neither inhibitor had any effect"}, {"measurement": "effect on proliferation of InEpC", "setting": "[2]", "result": "did not significantly affect the proliferation"}, {"measurement": "change in the different stages of cell cycle, HCT116", "setting": "HCT116 cells [3]", "result": "no significative change"}, {"measurement": "change in the different stages of cell cycle, HeLa", "setting": "HeLa cells [4]", "result": "no significative change"}, {"measurement": "apoptotic cell population (Annexin V), HT29", "setting": "HT29 cells", "result": "only a slight increase in apoptotic cell population"}, {"measurement": "apoptotic effect in combination with chloroquine (Annexin V), HCT116", "setting": "HCT116 cells [5]", "result": "increased the apoptotic effect"}, {"measurement": "apoptotic cell population (Annexin V), HCT116", "setting": "HCT116 cells [5]", "result": "only a slight increase in apoptotic cell population"}, {"measurement": "apoptotic cell population (Annexin V), HeLa", "setting": "HeLa cells [6]", "result": "only a slight increase in apoptotic cell population"}]}
